Measurements published in patent US8361968B2 (Takeda Pharmaceutical Company Limited, priority 2002, dated 2013).
Square brackets hold non-standard residues; d marks the D form. Peptide text beside a SMILES is read from it. Arg(Me) = CNC(=N)NCCC[C@H](N)C(=O)O; azaGly = NNC(=O)O

What follows are compounds tested against hOT7T175 (Homo sapiens, UniProt Q969F8, L364H) (assay: Intracellular Ca ion level-increasing activity using FLIPR in hOT7T175/CHO). Conditions: relative, Metastin (1-54) = 1.
Type: cell-based
Parameters: expressed in transfected cells; host or cells: CHO/dhfr- cells, obtained from ATCC
Description: Assay for Intracellular Ca Ion Level-Increasing Activity Using Flipr
In accordance with the method described in JPA 2000-312590, the intracellular Ca ion level-increasing activity was measured using FLIPR.
The stable expression cell line hOT7T175 was acquired by transduction of expression plasmid pAK-rOT175 for animal cells into CHO/dhff cells, using CellPhect Transfection Kit (Amersham Pharmacia Biotech, Inc.). First, 240 μL of Buffer A (attached to CellPhect Transfection Kit) was added to 9.6 μg of plasmid DNA dissolved in 240 μl of distilled water, followed by stirring. After settling the mixture for 10 minutes, 480 μL of Buffer B (attached to CellPhect Transfection Kit) was added to the mixture, which was vigorously stirred to form DNA-containing liposomes. Then, 4×10^5 CHO/dhff cells (obtained from ATCC) were inoculated on a 60 mm Petri dish. […] After culturing the cells at 37° C. for 6 hours in 5% carbon dioxide gas, the cells were washed twice with serum-free Ham's F-12 medium and 3 ml of 15% glycerol was added to the cells in the Petri dish to treat for 2 minutes. The cells were again washed twice with serum-free Ham's F-12 medium followed by incubation in Ham's F-12 medium supplemented with 10% fetal bovine serum at 37° C. for 15 hours in 5% carbon dioxide gas. The cells were dispersed by trypsin treatment and recovered from the Petri dish. The recovered cells were inoculated on a 6-well plate in 1.25×10^4 cells/well and incubation was initiated at 37° C. in Dulbecco's modified Eagle medium (DMEM) medium (Nissui Seiyaku Co., Ltd.) containing 10% dialyzed fetal bovine serum (JRH BIOSCIENCES, Inc.) under 5% carbon dioxide gas. […] The medium was exchanged on Days 1 and 2 to remove the cells died.
The intracellular Ca ion level-increasing activity of the synthetic peptide in hOT7T175/CHO was determined using FLIPR (Molecular Devices, Inc.).
hOT7T175/CHO was subcultured in DMEM supplemented with 10% dialyzed fetal bovine serum (hereinafter abbreviated as dFBS) and provided for the experiment (hereinafter abbreviated as 10% dFBS/DMEM). The hOT7T175/CHO was suspended in 10% dFBS-DMEM in 15×10^4 cells/ml. The suspension was inoculated on a 96-well plate for FLIPR (Black Plate Clear Bottom, Coster, Inc.) at 200 μL each (3.0×10^4 cells/200 μL/well), followed by incubation at 37° C. overnight in a 5% CO2 incubator (hereinafter simply referred to as the cell plate). Then, 21 ml of HANKS/HBSS (9.8 g of HANKS, 0.35 g of sodium hydrogencarbonate, 20 ml of 1M HEPES; after adjusting the pH to 7.4 with 1N sodium hydroxide, the mixture was sterilized by filtration), 210 μl of 250 mM Probenecid and […] of fetal bovine serum (FBS) were mixed (HANKS/HBSS-Probenecid-FBS).
Furthermore, 2 vials of Fluo3-AM (50 μug/vial) were dissolved in 21 μL of dimethylsulfoxide and 21 μL of 20% Pluronic acid. The resulting solution was added to and mixed with 10 ml of HANKS/HBSS-Probenecid-FBS described above. After the culture medium was removed, the mixture was dispensed onto the cell plate in 100 μL each/well, followed by incubation at 37° C. for an hour in a 5% CO2 incubator (pigment loading). The peptide was dissolved in dimethylsulfoxide in 1×10^−3 M. The peptide solution was diluted with HANKS/HBSS containing 2.5 mM Probenecid, 0.2% BSA and 0.1% CHAPS.

hOT7T175, sequence (Q969F8 whole entry L364H): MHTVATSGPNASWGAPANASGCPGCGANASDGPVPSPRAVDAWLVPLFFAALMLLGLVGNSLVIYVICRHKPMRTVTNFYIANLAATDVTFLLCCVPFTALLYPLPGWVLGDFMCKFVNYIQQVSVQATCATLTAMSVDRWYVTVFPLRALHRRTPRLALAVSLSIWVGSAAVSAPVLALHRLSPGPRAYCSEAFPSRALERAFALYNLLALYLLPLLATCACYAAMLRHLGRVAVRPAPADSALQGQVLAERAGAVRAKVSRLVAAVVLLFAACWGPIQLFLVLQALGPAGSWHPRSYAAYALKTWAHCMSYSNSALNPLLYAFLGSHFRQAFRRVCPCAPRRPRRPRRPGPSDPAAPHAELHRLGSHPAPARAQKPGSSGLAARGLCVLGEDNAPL

Point of comparison: `CNC(=N)NCCC[C@H](NC(=O)[C@H](CC(C)C)NC(=O)CNC(=O)[C@H](Cc1ccccc1)NC(=O)[C@H](CO)NC(=O)[C@H](CC(N)=O)NC(=O)[C@H](Cc1c[nH]c2ccccc12)NC(=O)[C@H](CCC(N)=O)NC(=O)[C@H](N)Cc1ccc(O)cc1)C(=O)N[C@@H](Cc1ccccc1)C(N)=O` [Compound No. 214] (H-[dY]QWNSFGL[Arg(Me)]F-NH2), “Specific Activity (intracellular Ca ion level-increasing activity)” value 10. Against it:
- CNC(=N)NCCC[C@H](NC(=O)[C@H](CC(C)C)NC(=O)[C@H](C)NC(=O)[C@H](Cc1ccccc1)NC(=O)[C@H](CO)NC(=O)[C@H](CC(N)=O)NC(=O)[C@H](Cc1c[nH]c2ccccc12)NC(=O)[C@H](CC(N)=O)NC(=O)[C@H](N)Cc1ccc(O)cc1)C(=O)N[C@@H](Cc1ccccc1)C(N)=O [Compound No. 204] (H-[dY]NWNSFAL[Arg(Me)]F-NH2) — lower, 5
- CC[C@H](C)[C@H](NC(=O)[C@H](CC(N)=O)NC(=O)[C@H](N)Cc1ccc(O)cc1)C(=O)N[C@@H](CC(N)=O)C(=O)N[C@@H](CO)C(=O)N[C@@H](Cc1ccccc1)C(=O)NCC(=O)N[C@@H](CC(C)C)C(=O)N[C@@H](CCCNC(=N)NC)C(=O)N[C@@H](Cc1ccccc1)C(N)=O [Compound No. 206] (H-[dY]NINSFGL[Arg(Me)]F-NH2) — the same, 10
- CNC(=N)NCCC[C@H](NC(=O)[C@H](CC(C)C)NC(=O)CNC(=O)[C@H](Cc1ccccc1)NC(=O)[C@H](CO)NC(=O)[C@@H](NC(=O)[C@H](Cc1c[nH]c2ccccc12)NC(=O)[C@H](CC(N)=O)NC(=O)[C@H](N)Cc1ccc(O)cc1)[C@@H](C)O)C(=O)N[C@@H](Cc1ccccc1)C(N)=O [Compound No. 208] (H-[dY]NWTSFGL[Arg(Me)]F-NH2) — lower, 1
- CNC(=N)NCCC[C@H](NC(=O)[C@H](CC(C)C)NC(=O)CNC(=O)[C@H](Cc1ccccc1)NC(=O)[C@H](CO)NC(=O)[C@H](C)NC(=O)[C@H](Cc1c[nH]c2ccccc12)NC(=O)[C@H](CC(N)=O)NC(=O)[C@H](N)Cc1ccc(O)cc1)C(=O)N[C@@H](Cc1ccccc1)C(N)=O [Compound No. 210] (H-[dY]NWASFGL[Arg(Me)]F-NH2) — lower, 1
- CNC(=N)NCCC[C@H](NC(=O)[C@H](CC(C)C)NC(=O)CNC(=O)[C@H](Cc1ccccc1)NC(=O)[C@@H](NC(=O)[C@H](CC(N)=O)NC(=O)[C@H](Cc1c[nH]c2ccccc12)NC(=O)[C@H](CC(N)=O)NC(=O)[C@H](N)Cc1ccc(O)cc1)[C@@H](C)O)C(=O)N[C@@H](Cc1ccccc1)C(N)=O [Compound No. 211] (H-[dY]NWNTFGL[Arg(Me)]F-NH2; N-terminus assumed) — the same, 10
- CNC(=N)NCCC[C@H](NC(=O)[C@H](CC(C)C)NC(=O)CNC(=O)[C@H](Cc1ccccc1)NC(=O)[C@H](C)NC(=O)[C@H](CC(N)=O)NC(=O)[C@H](Cc1c[nH]c2ccccc12)NC(=O)[C@H](CC(N)=O)NC(=O)[C@H](N)Cc1ccc(O)cc1)C(=O)N[C@@H](Cc1ccccc1)C(N)=O [Compound No. 212] (H-[dY]NWNAFGL[Arg(Me)]F-NH2) — the same, 10
- CNC(=N)NCCC[C@H](NC(=O)[C@H](CC(C)C)NC(=O)CNC(=O)[C@H](Cc1ccccc1)NC(=O)[C@H](CO)NC(=O)[C@H](CC(N)=O)NC(=O)[C@H](Cc1c[nH]c2ccccc12)NC(=O)[C@@H](NC(=O)[C@H](N)Cc1ccc(O)cc1)[C@@H](C)O)C(=O)N[C@@H](Cc1ccccc1)C(N)=O [Compound No. 215] (H-[dY]TWNSFGL[Arg(Me)]F-NH2; N-terminus assumed) — the same, 10
- CNC(=N)NCCC[C@H](NC(=O)[C@H](CC(C)C)NC(=O)CNC(=O)[C@H](Cc1ccccc1)NC(=O)[C@H](CO)NC(=O)[C@H](CC(N)=O)NC(=O)[C@H](Cc1c[nH]c2ccccc12)NC(=O)[C@H](N)CC(N)=O)C(=O)N[C@@H](Cc1ccccc1)C(N)=O [Compound No. 216] (H-[dN]WNSFGL[Arg(Me)]F-NH2; N-terminus assumed) — lower, 1
- CNC(=N)NCCC[C@H](NC(=O)[C@H](CC(C)C)NC(=O)CNC(=O)[C@H](Cc1ccccc1)NC(=O)[C@H](CO)NC(=O)[C@H](CC(N)=O)NC(=O)[C@H](Cc1c[nH]c2ccccc12)NC(=O)[C@H](N)Cc1ccc(O)cc1)C(=O)N[C@@H](Cc1ccccc1)C(N)=O [Compound No. 217] (H-[dY]WNSFGL[Arg(Me)]F-NH2) — higher, 20
- CNC(=N)NCCC[C@H](NC(=O)[C@H](CC(C)C)NC(=O)CNC(=O)[C@H](Cc1ccccc1)NC(=O)[C@H](CO)NC(=O)[C@H](CC(N)=O)NC(=O)[C@@H](NC(=O)[C@H](CC(N)=O)NC(=O)[C@H](N)Cc1ccc(O)cc1)C(C)C)C(=O)N[C@@H](Cc1ccccc1)C(N)=O [Compound No. 229] (H-[dY]NVNSFGL[Arg(Me)]F-NH2) — lower, 1
- CNC(=N)NCCC[C@H](NC(=O)[C@H](CC(C)C)NC(=O)CNC(=O)[C@H](Cc1ccccc1)NC(=O)[C@H](CO)NC(=O)[C@H](CC(N)=O)NC(=O)[C@H](Cc1c[nH]c2ccccc12)NC(=O)[C@@H](CC(N)=O)NC(=O)[C@H](N)Cc1ccc(O)cc1)C(=O)N[C@@H](Cc1ccccc1)C(N)=O [Compound No. 230] — the same, 10
- CNC(=N)NCCC[C@H](NC(=O)[C@H](CC(C)C)NC(=O)CNC(=O)[C@H](Cc1ccccc1)NC(=O)[C@H](CO)NC(=O)[C@H](CC(N)=O)NC(=O)[C@@H](Cc1c[nH]c2ccccc12)NC(=O)[C@@H](CC(N)=O)NC(=O)[C@H](N)Cc1ccc(O)cc1)C(=O)N[C@@H](Cc1ccccc1)C(N)=O [Compound No. 231, D-Tyr-D-Asn-D-Trp-Asn-Ser-Phe-Gly-Leu-Arg(Me)-Phe-NH2] — lower, 1
- CNC(=N)NCCC[C@H](NC(=O)[C@H](CC(C)C)NC(=O)NNC(=O)[C@H](Cc1ccccc1)NC(=O)[C@H](CO)NC(=O)[C@H](CC(N)=O)NC(=O)[C@@H](NC(=O)[C@H](CC(N)=O)NC(=O)[C@H](N)Cc1ccc(O)cc1)C(C)C)C(=O)N[C@@H](Cc1ccccc1)C(N)=O [Compound No. 234, D-Tyr-Asn-Val-Asn-Ser-Phe-AzaGly-Leu-Arg(Me)-Phe-NH2] (H-[dY]NVNSF[azaGly]L[Arg(Me)]F-NH2; N-terminus assumed) — lower, 1
- CNC(=N)NCCC[C@H](NC(=O)[C@H](CC(C)C)NC(=O)NNC(=O)[C@H](Cc1ccccc1)NC(=O)[C@H](CO)NC(=O)[C@H](CC(N)=O)NC(=O)[C@@H](NC(=O)[C@H](N)Cc1ccc(O)cc1)[C@@H](C)O)C(=O)N[C@@H](Cc1ccccc1)C(N)=O [Compound No. 241, D-Tyr-Thr-Asn-Ser-Phe-AzaGly-Leu-Arg(Me)-Phe-NH2] (H-[dY]TNSF[azaGly]L[Arg(Me)]F-NH2) — lower, 1
- CNC(=N)NCCC[C@H](NC(=O)[C@H](CC(C)C)NC(=O)NNC(=O)[C@H](Cc1ccccc1)NC(=O)[C@H](CO)NC(=O)[C@H](CC(N)=O)NC(=O)[C@@H](Cc1c[nH]c2ccccc12)NC(=O)[C@H](N)Cc1ccc(O)cc1)C(=O)N[C@@H](Cc1ccccc1)C(N)=O [Compound No. 242, D-Tyr-D-Trp-Asn-Ser-Phe-AzaGly-Leu-Arg(Me)-Phe-NH2] (H-[dY][dW]NSF[azaGly]L[Arg(Me)]F-NH2) — lower, 2
- CNC(=N)NCCC[C@H](NC(=O)[C@H](CC(C)C)NC(=O)NNC(=O)[C@H](Cc1ccccc1)NC(=O)[C@H](CO)NC(=O)[C@H](CC(N)=O)NC(=O)[C@H](Cc1ccccc1)NC(=O)[C@H](CC(N)=O)NC(=O)[C@H](N)Cc1ccc(O)cc1)C(=O)N[C@@H](Cc1ccccc1)C(N)=O [Compound No. 244, D-Tyr-Asn-Phe-Asn-Ser-Phe-AzaGly-Leu-Arg(Me)-Phe-NH2] (H-[dY]NFNSF[azaGly]L[Arg(Me)]F-NH2; N-terminus assumed) — lower, 1
